Experimental findings from publication PMC5130005, “Indolin-2-one compounds targeting thioredoxin reductase as potential anticancer drug leads” (Oncotarget, 2016) are described below.

Structures are written as SMILES.

The target in data set [1] is T1, recombinant rat TrxR (Rattus norvegicus, UniProt O89049).
T1 construct: made in house
T1 sequence (O89049 1-499): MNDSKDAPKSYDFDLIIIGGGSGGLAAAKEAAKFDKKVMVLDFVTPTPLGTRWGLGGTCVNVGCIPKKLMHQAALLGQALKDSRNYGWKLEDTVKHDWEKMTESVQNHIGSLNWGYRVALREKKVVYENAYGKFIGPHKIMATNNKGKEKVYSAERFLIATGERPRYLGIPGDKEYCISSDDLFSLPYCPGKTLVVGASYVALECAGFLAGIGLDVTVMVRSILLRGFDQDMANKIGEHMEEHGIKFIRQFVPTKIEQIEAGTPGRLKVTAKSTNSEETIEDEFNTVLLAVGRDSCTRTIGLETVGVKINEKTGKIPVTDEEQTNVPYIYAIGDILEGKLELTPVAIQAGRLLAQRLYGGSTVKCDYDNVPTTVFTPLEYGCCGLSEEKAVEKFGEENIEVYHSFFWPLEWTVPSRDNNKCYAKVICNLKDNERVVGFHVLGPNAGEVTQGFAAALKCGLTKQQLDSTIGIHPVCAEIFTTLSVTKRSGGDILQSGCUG
Briefly: reversibility of TrxR inhibition (desalting, DTNB reduction assay). It counts as biochemical. As to conditions: 20 μM, 30 min, then desalting; activity followed 2 h post-desalting.

The subject of a further data set is Trx in HCT 116 cells. Briefly: Trx redox state in cells (IAA alkylation, native PAGE). In kind it is cell-based, human. As to conditions: 40 μM; 4, 8 and 14 h. Here is the method: The redox state of cellular Trx was assessed as previously described. HCT 116 cells were seeded in 60 mm plates and allowed to grow to 70% confluency. Compounds 4 or 5 were then added to the cells for 4, 8 or 14 h. Lysates were collected in lysis buffer (50 mM Tris-HCl pH 8.3, 2 mM EDTA, 6 M guanidine HCl, 0.5% Triton-X, 50 mM IAA). The lysates were incubated in the dark for 30 min at room temperature, sonicated briefly, and finally passed through a MicroSpin G-25 column (GE Healthcare) to remove guanidine and unreacted IAA. The desalted lysates were subjected to native PAGE, followed by transfer of separated proteins onto nitrocellulose membranes for Western blot analysis using anti-Trx antibody.

In data set [2] the target is T1, recombinant rat TrxR. Briefly: juglone reduction versus DTNB reduction by recombinant rat TrxR. In kind it is biochemical. To be noted: 15 min incubation, 15 nM TrxR, 250 μM NADPH, 1-100 μM. Here is the method: The assay, designed to determine the ability of mammalian TrxR to reduce juglone at the N-terminal active center, was performed as described previously. Briefly, 2 μl of diluted DMSO stocks of compounds 4 and 5 (final concentrations 1-100 μM) were incubated in 198 μl of 15 nM recombinant rat TrxR, 250 μM NADPH and 0.1 mg/ml BSA in TE buffer at room temperature in 96-well plates for 15 min. 100 mM stock solution of juglone in DMSO was prepared fresh for each experiment and diluted in TE buffer to a 300 μM working solution. The incubation was terminated by the addition of 100 μl of 300 μM juglone solution (final concentration 100 μM), and NADPH consumption was monitored at 340 nm for 5 min using the VersaMax microplate reader. The linear decrease in NADPH absorbance was used for calculating juglone reduction activity. The results were expressed as % of TrxR juglone reduction activity of drug-treated sample over that of DMSO-treated sample.
The experiments were performed at the same time with a corresponding DTNB reduction assay as described above with modifications so as to keep the experimental parameters and conditions similar to those in the juglone reduction assay. […] Following 15 min incubation with compound 4 or 5, 50 μl of 8.75 μM DTNB solution (final concentration 1.75 μM) was added to each well and DTNB reduction was measured at 412 nm for 2 min.

A further data set relates to HCT 116 cells. Briefly: ROS determination (carboxy-H2DCFDA, DCF fluorescence). In kind it is cell-based, human. As to conditions: 50 μM, 3 h, versus DMSO control. Here is the method:
Oxidative stress was assessed through estimating the level of ROS using the H2DCFDA assay with modifications. Briefly, HCT 116 cells were seeded in 6-well plates and incubated for 24-48 h at 37°C till 70-80% confluency. They were treated with H2O2 (200 μM) or compounds 4 and 5 (20, 30, 40 or 50 μM) for 3 h. Following treatment, cells were washed with PBS and incubated with 10 μM carboxy-H2DCFDA in PBS at 37°C in the dark for 45 min to allow reaction between taken up H2DCF and ROS. The cells were collected, washed with cold PBS, pelleted, resuspended in 200 μl of PBS and transferred to wells in a 96-well black fluorescence plate. The fluorescence intensities were measured at an excitation wavelength of 485 nm and an emission wavelength of 530 nm using a Tecan Infinite M200 Pro microplate reader. The results were expressed as a percentage of fluorescence intensities measured in drug-treated cells over those produced in DMSO-treated cells.

Data set [3] is described as follows: cell viability, MRC-5 normal lung fibroblasts. In kind it is cell-based. To be noted: MRC-5 human normal lung fibroblasts, read-out: LC50, MRC-5 cells.
In data set [4] the test system is Trx-ASK1 complex in ASK1-overexpressing HCT 116 cells. Briefly: Trx-ASK1 interaction by Trx immunoprecipitation. It counts as cell-based, human. Here is the method: HCT 116 cells were seeded in 60 mm plates and upon reaching 40% confluency, they were transfected with 1.5 μg of pCMV-SPORT6-ASK1 per plate. When the transfected cells reached ~70% confluency, they were treated with DMSO or compound 4 at indicated concentrations for 4 h and lysates were collected for immunoprecipitation set-up. For each lysate sample, a volume containing 1 mg of protein was mixed with 1.5 μg of anti-Trx antibody coupled to 20 μl of protein G-sepharose (GE Healthcare) and tumbled at 4°C for 2 h. The G-sepharose beads were washed three times in a cold washing buffer containing 20 mM Tris (pH 7.5), 0.5 M NaCl and 1 mM EGTA and once in a buffer containing 50 mM Tris (pH 7.5). The immunoprecipitated proteins were denatured in SDS sample buffer containing 5% β-mercaptoethanol and subjected to SDS-PAGE and Western blotting.

Turning to `CC(=O)/C=C1/C(=O)N(Cc2ccccc2)c2ccccc21` [Compound 5], the “reversibility of TrxR inhibition” value on recombinant rat TrxR [1] is “irreversible inhibitors of TrxR”. In addition, the “Trx oxidation in HCT 116 cells” value in the data set on Trx in HCT 116 cells is on record as “time-dependent oxidation of Trx”. Further, at recombinant rat TrxR [2], the “juglone reduction compared with DTNB reduction by inhibited TrxR” value is listed as “juglone reduction was more preserved than DTNB reduction”. For the same compound, the “DCF fluorescence (cellular oxidative stress)” value in the data set with HCT 116 cells is listed as “markedly increased DCF fluorescence”. The CC50 at 72 h in data set [3] is 22.7 ± 2.4 µM.

Turning to `CCCCN1C(=O)/C(=C/C(C)=O)c2ccccc21` [Compound 4], the “reversibility of TrxR inhibition” value at recombinant rat TrxR [1] is on record as “irreversible inhibitors of TrxR”. In addition, the “Trx oxidation in HCT 116 cells” value in the data set on Trx in HCT 116 cells is listed as “time-dependent oxidation of Trx”. In addition, on recombinant rat TrxR [2], the “juglone reduction compared with DTNB reduction by inhibited TrxR” value is “juglone reduction was more preserved than DTNB reduction”. The “DCF fluorescence (cellular oxidative stress)” value with HCT 116 cells is “markedly increased DCF fluorescence”. The “amount of ASK1 bound to Trx1” value in data set [4] is “dose-dependent decrease”. In data set [3], the CC50 at 72 h was determined as 25.5 ± 2.7 µM.
